Earlier results, collected in US20200367500A1, “MICROCAPSULES WITH BIOCIDES FOR THEIR INCORPORATION INTO REPELLENT AND/OR INSECTICIDE COATINGS” (priority 2019, published 2020).
“Also recorded” adds a separate entry of the source. Like-named read-outs stand apart in the source and are kept apart here.

Conditions: for Decomposition time (Mean life): aqueous medium; for Stability in aqueous medium, in words: pH as stated in the value

SMILES	Stability in aqueous medium, in words	Decomposition time (Mean life) (pH 9)	also measured
CCOP(=S)(OCC)Oc1nc(Cl)c(Cl)cc1Cl [Chlorpyrifos]	Stable in neutral and slightly		Decomposition time (Mean life) (pH 10): 7 days
CC1(C)C(C=C(Cl)Cl)C1C(=O)OC(C#N)c1cccc(Oc2ccccc2)c1 (centres unmarked) [Cypermethrin]		7 days	
C=CCC1=C(C)C(OC(=O)C2C(C=C(C)C)C2(C)C)CC1=O [D-allethrin]	Stable at pH 5 after 31 days	(4.3 days)	Decomposition time (Mean life) (pH 7): 500 days
CC1(C)[C@H](C(=O)O[C@H](C#N)c2cccc(Oc3ccccc3)c2)[C@@H]1C=C(Br)Br [Deltamethrin]	more stable in medium acid solutions		Decomposition time (Mean life) (pH 7): 0.33 days
CCOP(=S)(OCC)Oc1cc(C)nc(C(C)C)n1 [Diazinon]		136 days	Decomposition time (Mean life) (pH 5): 31 days; Decomposition time (Mean life) (pH 7.5): 185 days
O=C(NC(=O)c1c(F)cccc1F)Nc1ccc(Cl)cc1 [Diflubenzuron]	Stable in a pH range from 5 to 7; also recorded: Hydrolyzed at pH 9		
CCOC(=O)CC(SP(=S)(OC)OC)C(=O)OCC (centres unmarked) [Malathion]	Quickly hydrolyzed at pH over 7. The optimal pH		
CC1(C)C(C=C(Cl)Cl)C1C(=O)OCc1cccc(Oc2ccccc2)c1 (centres unmarked) [Permethrin]	Stable at pH between 5 and 6.		
CCN(CC)c1nc(C)cc(OP(=S)(OC)OC)n1 [Pirimiphos-methyl]			Decomposition time (Mean life) (pH 5): 7 days; Decomposition time (Mean life) (pH 8): 5 days
CC(COc1ccc(Oc2ccccc2)cc1)Oc1ccccn1 (centres unmarked) [Pyriproxifen]	Stable in pH between 4 and 9.		
